Results published in patent US20240174642A1, “HETEROCYCLIC COMPOUNDS CAPABLE OF ACTIVATING STING” (Boehringer Ingelheim International GmbH, priority 2022, published 2024).
Read-outs that look alike come from different tables or passages of the source.

Experiments:
dog STING (dSTING) = experiment: Dog differential scanning fluorimetry (DSF) assay, thermal shift of dog STING protein; type: binding; details: 100 μM compound, 3 μM recombinant dog STING (residues 149 to 375), 5× SYPRO Orange, 2% DMSO
From the text: The protein used for the biophysical experiments was a recombinant dog STING protein comprising its cytosolic cGAMP binding ectodomain. A codon optimized DNA sequence (for expression in Escherichia coli) encoding amino acid residues 149 to 375 of dog STING was synthesized by GeneArt (Regensburg, Germany) and inserted into a pET17b E. coli expression vector. The protein construct encodes an N-terminal 8× His-tag followed by tobacco etch virus protease (TEV) cleavage site and the above STING gene sequence. The resulting protein sequence for the used dog STING protein (SEQ ID No. 1) is listed below:
For expression of the above recombinant dog STING, the construct was transformed into E. coli BL21 DE3 strain and grown in shake flasks in LB-medium at 15° C. Expression was induced by addition of isopropyl β-D-1-thiogalactopyranoside to a final concentration of 1 mM and cultures shaken overnight. Cell pellets were centrifuged and stored at −70° C. until further use. Protein was purified by cell thawing in lysis buffer (20 mM TRIS-HCl, pH 8, 500 mM NaCl, 1 mM DTT, 0.5 mg/ml lysozyme, Complete Protease Inhibitor (Roche) and DNase (Roche)), followed by metal affinity purification using Ni-NTA resins and elution buffer consisting of 20 mM TRIS-HCl, pH 8, 500 mM NaCl, 1 mM DTT, 300 mM imidazole. Cleavage of the His-Tag using TEV-protease took place during dialysis in size exclusion buffer (20 mM TRIS-HCl, pH 8, 100 mM NaCl, 1 mM DTT) over night. To further purify the target protein a reverse Nickel affinity column was used and the flow through was applied to a size exclusion chromatography. The peak fraction was collected and concentrated to 5 mg/mL.
Dye fluorescence is quenched in aqueous environment and increases upon association of the dye with the hydrophobic parts of the unfolding protein. […] The inflection point of the curve represents the “melting” temperature of the protein (Tm) which is calculated numerically using the Boltzmann equation.
The thermal stability of the dog STING protein was measured in assay buffer containing 20 mM Tris, 150 mM NaCl at pH7.5. The assay uses 384-Well qPCR Plates (Catalog #781358, BRAND), Microseal®‘B’ Adhesive Seals for PCR Plates (Catalog #MSB-1001, BIO-RAD) and was run on a CFX384 Real-Time System (Bio-Rad). A DMSO stock solution of SYPRO orange (SIGMA 55692-500UL) was prepared. Compound stock solutions (10 mM in DMSO) were diluted 1:2 in DMSO to an intermediate compound concentration of 5 mM and then further diluted 1:40 in assay buffer resulting in a compound concentration of 125 μM and 2.5% DMSO. Fluorescent dye stock solution (5000× SYPRO Orange) was then mixed with target protein and buffer to a concentration of 15 μM Protein and 25× SYPRO Orange. 2 μl of this protein-dye-mixture was added to 8 μl compound solution. Final volume was 10 μL. 3-6 well positions were used as negative control (protein with 2% DMSO). The plates were prepared for duplicate measurement and centrifuged for 2 min at 1000 g. In the measurement, 160 cycles of 0.5° C. were used (temperature ramp 15 s/cycle, 15° C. to 95° C.).
Final Assay concentrations for compound characterization were 100 μM compound, 3 μM target protein, 5× SYPRO Orange, and 2% DMSO in 10 μl. All dispensing steps were performed using a HamiltonStar pipetting robot (Hamilton).
Dissociation curves were processed in Bio-Rad CFX Manager. Peak type was set to “negative”. Compound codes for screen were assigned in the plate layout.
Two replicates of TM measurements were averaged, and the standard deviation was calculated. In cases of SD>1.5° C. the measurement was repeated.
The melting point (Tm) obtained for STING protein alone was subtracted from T obtained for protein incubated with ligand to generate ΔTm values.

STING = experiment: Dog whole blood (dWB) assay, IFNb secretion by ELISA; type: cell-based; details: 4 h incubation at 37° C., % control relative to cGAMP stimulated control, read-out: EC50, cytokine secretion in dog whole blood (dWB) culture system as determined by canine Interferon-beta (IFNb) ELISA
Description: In this assay, freshly collected canine blood is incubated with a STING agonist, and interferon beta levels in the supernatant are quantified by ELISA. […] In accordance with the invention, a combination of a high dDSF and low dWB is especially favorable.
For the detection of STING activation in physiological environment dog whole blood (dWB) was stimulated by the cyclic dinucleotide cGAMP or a test compound. Pathway activity was monitored by measuring the IFNb production.
Compounds were delivered as 10 mM DMSO solution, diluted and transferred by using an Echo acoustic dispenser to the 384well assay plate (Greiner #781182), pre-filled with 10 μl 1× HBSS in each well (10× HBSS (+Ca/+Mg), #14065-049, Gibco). Typically, 8 concentrations were used with the highest concentration at 10 μM in the final assay volume followed by approximately 1:4 dilution steps. DMSO concentration was set to 0.1% in the final assay volume. The 384-well assay plate contained 20 test compounds and DMSO in control and cGAMP standard wells. The dog whole blood was collected as Na-Citrate blood (e.g., 3.8% in Monovettes from Sarstedt) and kept at 4° C. overnight until use in the assay. 80 μl of the whole blood samples were transferred to each well of the 384-well assay plates filled with compound/1×HBSS. Blood plates were kept at room temperature for 60 minutes and continuous shaking with 450 rpm, covered with the lid, but not sealed. A 10× cGAMP assay solution was diluted from a 2 mM stock solution in 1×HBSS immediately before use at room temperature. 10 μl of the 10× cGAMP/HBSS were added to the high control wells, whereas HBSS only was added to all compound and low control wells. After covering assay plates with the lid, blood plates were kept for a 4 h incubation at 37° C. in the incubator, without shaking. For the detection of IFNb in dog plasma the ELISA Kit for Canine Interferon Beta (Biotrend #SEA222Ca) was used. Whole blood assay plates were centrifuged at 1000 g for 10 minutes at 8° C. 40 μl of supernatant was transferred with a 96 well pipetting robotics from the 384 well whole blood plate to the corresponding 96 well ELISA plate, pre-filled with […] assay diluent in each well. Plates were sealed with microplate seals and kept at 4° C. overnight again. ELISA plates were brought to room temperature, followed by a 1 h incubation at 37° C. in the incubator. Detection Reagent A working solution was prepared by diluting Detection Reagent A 1:100 in Assay Reagent A. Liquid was then removed from the 96 well ELISA plate to add 100 μL Detection Reagent A working solution to each well. ELISA plates were covered with the plate sealer and incubated for 1 hour at 37° C. in the incubator. The 1× Wash buffer was prepared by diluting the 30× Wash Buffer Concentrate in H2O. Detection Reagent B working solution was prepared by diluting Detection Reagent B 1:100 in Assay Reagent B. The ELISA plates were washed three times with 350 μl wash buffer and afterwards inverted and blotted against absorbent paper to remove any liquid. 100 μL of Detection Reagent B working solution was added to each well of the ELISA plates, which are then covered with the plate sealer and incubated for 30 minutes at 37° C. in the incubator. After incubation the ELISA assay plates were washed five times with 350 μl wash buffer and were again inverted and blotted against absorbent paper to remove any remaining liquid. 90 μL of TMB Substrate was added to each well of the ELISA plates, which were then covered with the plate sealer and incubated for 15 minutes at 37° C. in the incubator. The reaction was stopped by adding 50 μL stop solution and absorbance was measured at 450 nm immediately.
For data evaluation and calculation, % control calculation of each well was based on the mean of high (cGAMP stimulated control) and mean of low (unstimulated control) controls by using the following standard 4 parameter logistic regression formula: […]

Row | Compound | Delta TM, interaction with dog STING as determined by DSF (dDSF) (dog STING (dSTING)) | EC50 (STING) | EC50 (STING; Canis lupus familiaris)
1 | CC(=O)N1C[C@H]2C[C@@H]1CN2c1ccc(-n2nc(-c3cccc4nn(C)cc34)c3cccc(C)c32)cn1 [Example 11, 1-[(1R,4R)-5-(5-{2″,7-dimethyl-1H,2″H-[3,4″-biindazol]-1-yl}pyridin-2-yl)-2,5-diazabicyclo[2.2.1]heptan-2-yl]ethan-1-one] | 28.3 °C | 620 nM | –
2 | CC(=O)N1CC2CCC1CN2c1ccc(-n2nc(-c3cccc4nn(C)cc34)c3cccc(C)c32)cn1 (stereo not drawn) [Example 13, 1-[5-(5-{2′,7-dimethyl-1H,2′H-[3,4′-biindazol]-1-yl}pyridin-2-yl)-2,5-diazabicyclo[2.2.2]octan-2-yl]ethan-1-one] | 28.3 °C | – | 282 nM
3 | (1S,4R,5R)-2-(5-{2″,7-dimethyl-1H,2″H-[3,4″-biindazol]-1-yl}pyridin-2-yl)-2-azabicyclo[2.2.1]heptane-5-carboxylic acid and 1R,4S,5S)-2-(5-{2′,7-dimethyl-1H,2′H-[3,4′-biindazol]-1-yl}pyridin-2-yl)-2-azabicyclo[2.2.1]heptane-5-carboxylic acid [Example 5] | 33.5 °C | 529 nM | –
